These antisense oligonucleotides have a phosphorothioate backbone; sugars and methylation of C are not fully specified.
Tests used:
Details in all cases: ASO
[1] = molecular target: NCOA2
[2] = molecular target: NCOA1
[3] = molecular target: MAP4K4
[4] = molecular target: CHUK
Note: test concentration or dose not given here.

Work on GGACATAGCAAGTCATCT yielded a remaining target (mRNA or protein) (fraction of control) [1] of 0.62.
With TTCTGAATCAGGTAAAGG the remaining target (mRNA or protein) (fraction of control) [1] was ≥ 1.
TCATGATGATGAAGCCGA showed a remaining target (mRNA or protein) (fraction of control) [2] of 0.58.
GCAAGCTACCTGTGGAGT was tested, and the remaining target (mRNA or protein) (fraction of control) [1] was 0.5.
Sequence TGTAGGCATCTCTCCCCACT has a remaining target (mRNA or protein) (fraction of control) [3] of 0.42.
Sequence AAAAGTGGTTATTCAGTC has a remaining target (mRNA or protein) (fraction of control) [2] of 0.62.
CCAACATGCAAGATGCTA was tested, and the remaining target (mRNA or protein) (fraction of control) [1] was 0.83.
For CCAAGTTGGTCAGGACAT, the remaining target (mRNA or protein) (fraction of control) [1] was ≥ 1.
In the case of TGCACTTCATCTATGTTG, the remaining target (mRNA or protein) (fraction of control) [1] is reported as 0.5.
With ACCTCCTGAAGAGTTAGC the remaining target (mRNA or protein) (fraction of control) [2] was 0.58.
With GGATCATTGTGAAGTATTTT the remaining target (mRNA or protein) (fraction of control) [3] was 0.84.
In the case of AGGGTTGCTCATAGTTGC, the remaining target (mRNA or protein) (fraction of control) [1] is reported as 0.61.
In the case of CATCCCACTCATCTTGAA, the remaining target (mRNA or protein) (fraction of control) [1] is reported as ≥ 1.
In the case of TAAACCTGACTGCTGCCACC, the remaining target (mRNA or protein) (fraction of control) [3] is reported as 0.53.
Work on TTAAAAGTGGTTATTCAG yielded a remaining target (mRNA or protein) (fraction of control) [2] of 0.79.
For CTCTGTGAAATTCGCAGT, the remaining target (mRNA or protein) (fraction of control) [1] was ≥ 1.
TCCTTTAAAAGTGGTTAT showed a remaining target (mRNA or protein) (fraction of control) [2] of 0.93.
With CTGAGGACTGGAGAACTG the remaining target (mRNA or protein) (fraction of control) [2] was 0.44.
Sequence CTGCGCATGGAACTTCTG has a remaining target (mRNA or protein) (fraction of control) [1] of 0.45.
In the case of ATCGGCTCGGGTCGGTCA, the remaining target (mRNA or protein) (fraction of control) [1] is reported as 0.38.
GAACCATCTGCACATGATTT was tested, and the remaining target (mRNA or protein) (fraction of control) [3] was 0.48.
ACTCATCTTGAACACATA was tested, and the remaining target (mRNA or protein) (fraction of control) [1] was ≥ 1.
For GACTGAGTCTGGCGGACGAT, the remaining target (mRNA or protein) (fraction of control) [3] was 0.84.
For ACTTCCTCCTCTTCTTCCTC, the remaining target (mRNA or protein) (fraction of control) [3] was 0.41.
With CTCTGCAGGGCGGGATGCAC the remaining target (mRNA or protein) (fraction of control) [3] was ≥ 1.
For CTGTCAACATTTACTTGG, the remaining target (mRNA or protein) (fraction of control) [1] was ≥ 1.
In the case of TCCCCGTTTGAACTGGTA, the remaining target (mRNA or protein) (fraction of control) [2] is reported as 0.63.
Work on AGCTGTCAATGTCACTAA yielded a remaining target (mRNA or protein) (fraction of control) [2] of 0.43.
In the case of TTCATGGCACTGGTGGTA, the remaining target (mRNA or protein) (fraction of control) [1] is reported as 0.85.
In the case of GGACTCGTCAGCCCCTTCCT, the remaining target (mRNA or protein) (fraction of control) [3] is reported as 0.16.
For TCATTAATTCCTCCTGAT, the remaining target (mRNA or protein) (fraction of control) [2] was 0.48.
For TTAGCAGGGTCGGATGAA, the remaining target (mRNA or protein) (fraction of control) [2] was 0.4.
ATGCCAACAGGAGCAGTT was tested, and the remaining target (mRNA or protein) (fraction of control) [2] was 0.51.
For CCGCTTCTGTCTCTCTGCCA, the remaining target (mRNA or protein) (fraction of control) [3] was 0.25.
With AAACAAAATGGGACCCCTTA the remaining target (mRNA or protein) (fraction of control) [3] was 0.56.
CCTTGACTACTTGATGAG gave a remaining target (mRNA or protein) (fraction of control) [2] of 0.77.
For CACACAGAATCTCAGAGTTA, the remaining target (mRNA or protein) (fraction of control) [3] was 0.61.
GACTTGGATGATGATCTCAC showed a remaining target (mRNA or protein) (fraction of control) [3] of 0.86.
TGGACAATCATGGTTTTCAC showed a remaining target (mRNA or protein) (fraction of control) [3] of 0.71.
With GAGCTAATACACTGGTCT the remaining target (mRNA or protein) (fraction of control) [2] was 0.55.
For GCGTTGCTTGTTGTGGTG, the remaining target (mRNA or protein) (fraction of control) [2] was 0.43.
With GGTACGATCTATATGATCCT the remaining target (mRNA or protein) (fraction of control) [3] was 0.8.
Work on CTACGACCTGAAGAATGG yielded a remaining target (mRNA or protein) (fraction of control) [2] of 0.76.
AGTGGTTATTCAGTCAGT was tested, and the remaining target (mRNA or protein) (fraction of control) [2] was 0.67.
GCTCCTTTCCTGCTGCGGTG showed a remaining target (mRNA or protein) (fraction of control) [3] of 0.37.
AGAGGGCCGCTGCATGTAAT gave a remaining target (mRNA or protein) (fraction of control) [3] of 0.36.
With ATGTCGACCCTTATAGACTT the remaining target (mRNA or protein) (fraction of control) [3] was 0.39.
In the case of TGGTTATTCAGTCAGTAG, the remaining target (mRNA or protein) (fraction of control) [2] is reported as 0.71.
For AGACCCGGGCTGGGATCCTG, the remaining target (mRNA or protein) (fraction of control) [3] was 0.92.
Sequence GTCCCCGCCTACCAGATT has a remaining target (mRNA or protein) (fraction of control) [2] of 0.56.
AATAAAACCAACGGCATGTT gave a remaining target (mRNA or protein) (fraction of control) [3] of 0.81.
For TAAAAGTGGTTATTCAGT, the remaining target (mRNA or protein) (fraction of control) [2] was 0.79.
CACCACAGATGTCACTGTTG gave a remaining target (mRNA or protein) (fraction of control) [3] of 0.45.
Work on TTTAAAAGTGGTTATTCA yielded a remaining target (mRNA or protein) (fraction of control) [2] of 0.74.
In the case of GTACGTCCATTTGTTGAAAT, the remaining target (mRNA or protein) (fraction of control) [3] is reported as 0.51.
Sequence GGATTGACCGAGGGATTT has a remaining target (mRNA or protein) (fraction of control) [2] of 0.52.
In the case of CGAATTCCACCACACTGG, the remaining target (mRNA or protein) (fraction of control) [2] is reported as 0.69.
GTGGTTATTCAGTCAGTA gave a remaining target (mRNA or protein) (fraction of control) [2] of 0.56.
GTTCATTCCTGGCATCTG gave a remaining target (mRNA or protein) (fraction of control) [2] of 0.66.
CTTCCTCTTCATCCTCAGTG gave a remaining target (mRNA or protein) (fraction of control) [3] of 0.34.
CCTTGATATCCCGGTGAATC was tested, and the remaining target (mRNA or protein) (fraction of control) [3] was 0.23.
With CTCTTGTTCCATTCTCTT the remaining target (mRNA or protein) (fraction of control) [2] was 0.61.
Work on GGTTATTCAGTCAGTAGC yielded a remaining target (mRNA or protein) (fraction of control) [2] of 0.57.
For TTTGATTCTTTCATATTTTA, the remaining target (mRNA or protein) (fraction of control) [3] was 0.82.
Work on TCCAAATGACTTAAAGGCCA yielded a remaining target (mRNA or protein) (fraction of control) [3] of 0.68.
With CTGAAAGTCTGTCATTGT the remaining target (mRNA or protein) (fraction of control) [2] was 0.95.
With CAGTTACAAGGAATTCCAAG the remaining target (mRNA or protein) (fraction of control) [3] was 0.93.
TTCCTTTAAAAGTGGTTA was tested, and the remaining target (mRNA or protein) (fraction of control) [2] was 0.71.
TGCTTGGTCATAAAGGAT showed a remaining target (mRNA or protein) (fraction of control) [2] of 0.74.
AGGTGGCATCTGGGTTCTCA showed a remaining target (mRNA or protein) (fraction of control) [3] of 0.46.
AAGTTTCACCTCTGCATTCT showed a remaining target (mRNA or protein) (fraction of control) [3] of 0.26.
For GCCGTACATCTTCCACTGCT, the remaining target (mRNA or protein) (fraction of control) [3] was 0.45.
TCCGTGCTTGATGCCAGT gave a remaining target (mRNA or protein) (fraction of control) [2] of 0.34.
For CCTGCTGCAGTCTCAGGAAA, the remaining target (mRNA or protein) (fraction of control) [3] was 0.37.
In the case of CCATCCAAGTGACCAGTTTC, the remaining target (mRNA or protein) (fraction of control) [3] is reported as 0.29.
Sequence CACTGCATTTTCCAGGCGCT has a remaining target (mRNA or protein) (fraction of control) [3] of 0.49.
For CCTGCCTGGCTATTCTGCTG, the remaining target (mRNA or protein) (fraction of control) [3] was 0.43.
In the case of GCCTTGATTTATTTTGGAGT, the remaining target (mRNA or protein) (fraction of control) [3] is reported as 0.92.
For CATGATGATGAAGCCGAA, the remaining target (mRNA or protein) (fraction of control) [2] was 0.7.
With GCATGGAATCCAGCACAGGA the remaining target (mRNA or protein) (fraction of control) [3] was 0.69.
For CTGAGGATTGATTCCAGT, the remaining target (mRNA or protein) (fraction of control) [2] was 0.67.
CCTCTCCTCTTCTTCTTTGC was tested, and the remaining target (mRNA or protein) (fraction of control) [3] was 0.64.
With CATAGTGGATGGCCTTTT the remaining target (mRNA or protein) (fraction of control) [4] was 0.66.
GGTCTGAGCTCTGCTGGC showed a remaining target (mRNA or protein) (fraction of control) [2] of 0.24.
CTTCCTCACTAAATCTTC was tested, and the remaining target (mRNA or protein) (fraction of control) [2] was ≥ 1.
For ATGTAAGCGATCCAGTCTTC, the remaining target (mRNA or protein) (fraction of control) [3] was 0.67.
With ATACAGTTTTACTTTTAT the remaining target (mRNA or protein) (fraction of control) [4] was ≥ 1.
AGAACACATTGAGAGGCT was tested, and the remaining target (mRNA or protein) (fraction of control) [4] was 0.8.
CCTCATCTTCATAGCACACC was tested, and the remaining target (mRNA or protein) (fraction of control) [3] was 0.82.
For GCTCTCATTGGATGCATGTC, the remaining target (mRNA or protein) (fraction of control) [3] was 0.39.
AGAGTAGACTCACCAGGCAC was tested, and the remaining target (mRNA or protein) (fraction of control) [3] was 0.75.
TAGAAGAGGCACATCATG gave a remaining target (mRNA or protein) (fraction of control) [4] of 0.76.
AAGTGGTTATTCAGTCAG was tested, and the remaining target (mRNA or protein) (fraction of control) [2] was 0.74.
AAATATACACTTTGGATC was tested, and the remaining target (mRNA or protein) (fraction of control) [4] was ≥ 1.
With CTTTAAAAGTGGTTATTC the remaining target (mRNA or protein) (fraction of control) [2] was ≥ 1.
With AAAGTGGTTATTCAGTCA the remaining target (mRNA or protein) (fraction of control) [2] was 0.71.
In the case of CCTTTAAAAGTGGTTATT, the remaining target (mRNA or protein) (fraction of control) [2] is reported as ≥ 1.
Work on TCCATCTGTTCTTTCTTT yielded a remaining target (mRNA or protein) (fraction of control) [2] of 0.84.
With ATGATGATGAAGCCGAAT the remaining target (mRNA or protein) (fraction of control) [2] was 0.93.

From the OligoGym collection
